In PubChem BioAssay (NCI):
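Briefly, cells in 96-well plates were exposed to five compound concentrations for 48 h, and endpoints were estimated by linear interpolation. Abbreviation: GI50, concentration required for 50% inhibition of growth. At the TGI there is no net growth.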

Columns and labels:
Assay in all cases: NCI-60 cell line screen, 48 h
M14 melanoma = test system: M14 melanoma
A549 NSCLC = test system: A549 NSCLC
LOX IMVI melanoma = test system: LOX IMVI melanoma
HCT-15 colon = test system: HCT-15 colon
HCC-2998 colon = test system: HCC-2998 colon
SW-620 colon = test system: SW-620 colon
CAKI-1 renal = test system: CAKI-1 renal
HOP-92 NSCLC = test system: HOP-92 NSCLC
KM12 colon = test system: KM12 colon
786-0 renal = test system: 786-0 renal
DU-145 prostate = test system: DU-145 prostate
IGROV1 ovarian = test system: IGROV1 ovarian
SN12C renal = test system: SN12C renal
MCF7 breast = test system: MCF7 breast
NCI/ADR-RES ovarian = test system: NCI/ADR-RES ovarian
MDA-MB-231 breast = test system: MDA-MB-231 breast
SF-539 CNS = test system: SF-539 CNS
U251 CNS = test system: U251 CNS
MDA-N = test system: MDA-N
EKVX NSCLC = test system: EKVX NSCLC
SK-MEL-28 melanoma = test system: SK-MEL-28 melanoma
TK-10 renal = test system: TK-10 renal
SF-295 CNS = test system: SF-295 CNS
NCI-H226 lung = test system: NCI-H226 lung
BT-549 breast = test system: BT-549 breast
HL-60(TB) leukemia = test system: HL-60(TB) leukemia
HCT-116 colon = test system: HCT-116 colon
NCI-H460 lung = test system: NCI-H460 lung
MOLT-4 leukemia = test system: MOLT-4 leukemia
OVCAR-3 ovarian = test system: OVCAR-3 ovarian
OVCAR-5 ovarian = test system: OVCAR-5 ovarian
SK-OV-3 ovarian = test system: SK-OV-3 ovarian
A498 renal = test system: A498 renal
MDA-MB-435 = test system: MDA-MB-435
UACC-257 melanoma = test system: UACC-257 melanoma
SK-MEL-5 melanoma = test system: SK-MEL-5 melanoma
COLO 205 colon = test system: COLO 205 colon
SF-268 CNS = test system: SF-268 CNS
UO-31 renal = test system: UO-31 renal
HT29 colon = test system: HT29 colon
RXF 393 renal = test system: RXF 393 renal
PC-3 prostate = test system: PC-3 prostate
K-562 leukemia = test system: K-562 leukemia
ACHN renal = test system: ACHN renal
SNB-75 CNS = test system: SNB-75 CNS
OVCAR-4 ovarian = test system: OVCAR-4 ovarian
SNB-19 CNS = test system: SNB-19 CNS
HOP-62 NSCLC = test system: HOP-62 NSCLC
OVCAR-8 ovarian = test system: OVCAR-8 ovarian
CCRF-CEM leukemia = test system: CCRF-CEM leukemia
NCI-H23 lung = test system: NCI-H23 lung
SK-MEL-2 melanoma = test system: SK-MEL-2 melanoma
UACC-62 melanoma = test system: UACC-62 melanoma
HS 578T breast = test system: HS 578T breast
T-47D breast = test system: T-47D breast
MALME-3M melanoma = test system: MALME-3M melanoma
RPMI-8226 leukemia = test system: RPMI-8226 leukemia
NCI-H522 lung = test system: NCI-H522 lung
SR leukemia = test system: SR leukemia

## CNc1nnc(CNc2ccc(-c3nnc(NC)n3N)cc2)n1N
M14 melanoma
  TGI: > 100 µM
A549 NSCLC
  TGI: > 100 µM
LOX IMVI melanoma
  TGI: > 100 µM
HCT-15 colon
  TGI: > 100 µM
HCC-2998 colon
  TGI: 93.8 µM
SW-620 colon
  TGI: > 100 µM
CAKI-1 renal
  TGI: > 100 µM
HOP-92 NSCLC
  TGI: > 100 µM
KM12 colon
  TGI: > 100 µM
786-0 renal
  TGI: > 100 µM
DU-145 prostate
  TGI: > 100 µM
IGROV1 ovarian
  TGI: > 100 µM
SN12C renal
  TGI: > 100 µM
MCF7 breast
  TGI: > 100 µM
NCI/ADR-RES ovarian
  TGI: > 100 µM
MDA-MB-231 breast
  TGI: > 100 µM
SF-539 CNS
  TGI: > 100 µM
U251 CNS
  TGI: > 100 µM
MDA-N
  TGI: > 100 µM
EKVX NSCLC
  TGI: > 100 µM
SK-MEL-28 melanoma
  TGI: > 100 µM
TK-10 renal
  TGI: > 100 µM
SF-295 CNS
  TGI: > 100 µM
NCI-H226 lung
  TGI: > 100 µM
BT-549 breast
  TGI: > 100 µM
HL-60(TB) leukemia
  TGI: > 100 µM
HCT-116 colon
  TGI: > 100 µM
NCI-H460 lung
  TGI: > 100 µM
MOLT-4 leukemia
  TGI: > 100 µM
OVCAR-3 ovarian
  TGI: > 100 µM
OVCAR-5 ovarian
  TGI: > 100 µM
SK-OV-3 ovarian
  TGI: > 100 µM
A498 renal
  TGI: > 100 µM
MDA-MB-435
  TGI: > 100 µM
UACC-257 melanoma
  TGI: > 100 µM
SK-MEL-5 melanoma
  TGI: > 100 µM
COLO 205 colon
  TGI: > 100 µM
SF-268 CNS
  TGI: > 100 µM
UO-31 renal
  TGI: > 100 µM
HT29 colon
  TGI: > 100 µM
RXF 393 renal
  TGI: > 100 µM
PC-3 prostate
  TGI: > 100 µM
K-562 leukemia
  TGI: > 100 µM
ACHN renal
  TGI: > 100 µM
SNB-75 CNS
  TGI: > 100 µM
OVCAR-4 ovarian
  TGI: > 100 µM
SNB-19 CNS
  TGI: > 100 µM
HOP-62 NSCLC
  TGI: > 100 µM
OVCAR-8 ovarian
  TGI: > 100 µM
CCRF-CEM leukemia
  TGI: > 100 µM
NCI-H23 lung
  TGI: > 100 µM
SK-MEL-2 melanoma
  TGI: > 100 µM

## COC(=O)Nc1nc2ccc(NC(=O)c3cccs3)cc2[nH]1
M14 melanoma
  TGI: > 100 µM
A549 NSCLC
  TGI: > 100 µM
LOX IMVI melanoma
  TGI: > 100 µM
HCT-15 colon
  TGI: > 100 µM
SW-620 colon
  TGI: > 100 µM
UACC-62 melanoma
  TGI: > 100 µM
CAKI-1 renal
  TGI: > 100 µM
HOP-92 NSCLC
  TGI: 40.7 µM
HS 578T breast
  TGI: 44.7 µM
KM12 colon
  TGI: > 100 µM
786-0 renal
  TGI: > 100 µM
DU-145 prostate
  TGI: > 100 µM
IGROV1 ovarian
  TGI: 14.4 µM
SN12C renal
  TGI: > 100 µM
MCF7 breast
  TGI: > 100 µM
NCI/ADR-RES ovarian
  TGI: 55.4 µM
MDA-MB-231 breast
  TGI: > 100 µM
SF-539 CNS
  TGI: 60.2 µM
U251 CNS
  TGI: > 100 µM
MDA-N
  TGI: 36.7 µM
T-47D breast
  TGI: 88.1 µM
EKVX NSCLC
  TGI: > 100 µM
SK-MEL-28 melanoma
  TGI: > 100 µM
TK-10 renal
  TGI: > 100 µM
SF-295 CNS
  TGI: > 100 µM
NCI-H226 lung
  TGI: > 100 µM
BT-549 breast
  TGI: > 100 µM
HL-60(TB) leukemia
  TGI: > 100 µM
HCT-116 colon
  TGI: > 100 µM
NCI-H460 lung
  TGI: > 100 µM
MOLT-4 leukemia
  TGI: > 100 µM
OVCAR-3 ovarian
  TGI: 47.3 µM
OVCAR-5 ovarian
  TGI: > 100 µM
SK-OV-3 ovarian
  TGI: > 100 µM
A498 renal
  TGI: 88.7 µM
MDA-MB-435
  TGI: 39.4 µM
SK-MEL-5 melanoma
  TGI: 82.5 µM
COLO 205 colon
  TGI: > 100 µM
SF-268 CNS
  TGI: > 100 µM
MALME-3M melanoma
  TGI: 99.5 µM
UO-31 renal
  TGI: 36.2 µM
HT29 colon
  TGI: > 100 µM
RXF 393 renal
  TGI: 86.7 µM
PC-3 prostate
  TGI: > 100 µM
K-562 leukemia
  TGI: > 100 µM
ACHN renal
  TGI: > 100 µM
SNB-75 CNS
  TGI: 65 µM
RPMI-8226 leukemia
  TGI: 46.4 µM
OVCAR-4 ovarian
  TGI: > 100 µM
SNB-19 CNS
  TGI: > 100 µM
HOP-62 NSCLC
  TGI: > 100 µM
OVCAR-8 ovarian
  TGI: > 100 µM
CCRF-CEM leukemia
  TGI: > 100 µM
NCI-H23 lung
  TGI: > 100 µM
SK-MEL-2 melanoma
  TGI: > 100 µM

## O=C(Nc1nc2ccc(F)cc2s1)c1cccnc1Nc1ccc(Cl)cc1
M14 melanoma
  GI50: 2.94 µM
  TGI: > 100 µM
A549 NSCLC
  GI50: 3.35 µM
  TGI: > 33.7 µM
LOX IMVI melanoma
  GI50: 2.66 µM
  TGI: > 28.8 µM
HCT-15 colon
  GI50: 2.74 µM
  TGI: > 100 µM
HCC-2998 colon
  GI50: 2.73 µM
  TGI: > 100 µM
SW-620 colon
  GI50: 3.04 µM
  TGI: > 100 µM
UACC-62 melanoma
  GI50: 2.47 µM
  TGI: > 100 µM
CAKI-1 renal
  GI50: 2.56 µM
  TGI: > 30.8 µM
HOP-92 NSCLC
  GI50: 0.575 µM
  TGI: 3.34 µM
HS 578T breast
  GI50: 2.1 µM
  TGI: 7.54 µM
KM12 colon
  GI50: 2.61 µM
  TGI: 8.54 µM
786-0 renal
  GI50: 2.93 µM
  TGI: > 100 µM
DU-145 prostate
  GI50: 3.76 µM
  TGI: > 100 µM
IGROV1 ovarian
  GI50: 2.6 µM
  TGI: > 34.1 µM
SN12C renal
  GI50: 2.63 µM
  TGI: > 100 µM
NCI-H522 lung
  GI50: 2.17 µM
  TGI: > 24.2 µM
MCF7 breast
  GI50: 2.32 µM
  TGI: > 100 µM
NCI/ADR-RES ovarian
  GI50: 2.36 µM
  TGI: > 28.1 µM
MDA-MB-231 breast
  GI50: 1.88 µM
  TGI: 5 µM
SF-539 CNS
  GI50: 2.89 µM
  TGI: > 27.9 µM
U251 CNS
  GI50: 2.88 µM
  TGI: > 100 µM
T-47D breast
  GI50: 1.04 µM
  TGI: > 29.2 µM
EKVX NSCLC
  GI50: 2.45 µM
  TGI: > 82.6 µM
SK-MEL-28 melanoma
  GI50: 3.47 µM
  TGI: > 79.3 µM
TK-10 renal
  GI50: 5.11 µM
  TGI: > 100 µM
SF-295 CNS
  GI50: 1.98 µM
  TGI: 7.83 µM
NCI-H226 lung
  GI50: 2.97 µM
  TGI: > 100 µM
BT-549 breast
  GI50: 2.77 µM
  TGI: > 29.3 µM
HL-60(TB) leukemia
  GI50: 1.6 µM
  TGI: 5.8 µM
SR leukemia
  GI50: 2.28 µM
  TGI: 9.31 µM
HCT-116 colon
  GI50: 1.99 µM
  TGI: > 29.2 µM
NCI-H460 lung
  GI50: 2.22 µM
  TGI: > 100 µM
MOLT-4 leukemia
  GI50: 2.47 µM
  TGI: > 27 µM
OVCAR-3 ovarian
  GI50: 2.11 µM
  TGI: 9.57 µM
OVCAR-5 ovarian
  GI50: 2.64 µM
  TGI: > 61.1 µM
SK-OV-3 ovarian
  GI50: 2.49 µM
  TGI: > 26.5 µM
A498 renal
  GI50: 1.8 µM
  TGI: 5.46 µM
MDA-MB-435
  GI50: 3.11 µM
  TGI: > 100 µM
UACC-257 melanoma
  GI50: 0.677 µM
SK-MEL-5 melanoma
  GI50: 1.39 µM
  TGI: 3.38 µM
COLO 205 colon
  GI50: 1.72 µM
  TGI: 3.48 µM
SF-268 CNS
  GI50: 3.68 µM
  TGI: > 100 µM
MALME-3M melanoma
  GI50: 2.22 µM
  TGI: > 27 µM
UO-31 renal
  GI50: 2.36 µM
  TGI: > 21.5 µM
HT29 colon
  GI50: 3.1 µM
  TGI: > 100 µM
RXF 393 renal
  GI50: 33.6 µM
  TGI: > 100 µM
PC-3 prostate
  GI50: 1.93 µM
  TGI: > 27.4 µM
K-562 leukemia
  GI50: 0.961 µM
  TGI: > 100 µM
ACHN renal
  GI50: 3.08 µM
  TGI: > 100 µM
SNB-75 CNS
  GI50: 2.36 µM
  TGI: 16.1 µM
RPMI-8226 leukemia
  GI50: 1.24 µM
  TGI: 7.47 µM
OVCAR-4 ovarian
  GI50: 2.99 µM
  TGI: > 100 µM
SNB-19 CNS
  GI50: 3.83 µM
  TGI: > 100 µM
HOP-62 NSCLC
  GI50: 2.55 µM
  TGI: 9.08 µM
OVCAR-8 ovarian
  GI50: 6.26 µM
  TGI: > 100 µM
CCRF-CEM leukemia
  GI50: 1.54 µM
  TGI: > 100 µM
NCI-H23 lung
  GI50: 1.67 µM
  TGI: 8.38 µM
SK-MEL-2 melanoma
  GI50: 2.11 µM
  TGI: 6.45 µM
